19 compounds from patent publication US8012956B2, “Tropane compounds” (Exelixis, Inc., priority 2007, dated 2011) can be followed below.

The assay addresses HSP90 (Homo sapiens, UniProt P07900). The experiment in a line: HSP90 inhibition (HSP90 IC50). In kind it is biochemical.
Compound `CCC(CC)Nc1cc(C(=O)N[C@H]2C[C@H]3CC[C@@H](C2)N3c2ccc(C(=O)C3CC3)cn2)c(C(F)(F)F)cc1C(N)=O` [N-{8-[5-(cyclopropylcarbonyl)pyridine-2-yl]-8-azabicyclo[3.2.1]oct-3-endo-yl}-5-[(1-ethylpropyl)amino]-2-(trifluoromethyl)benzene-1,4-dicarboxamide] returned an IC50 of less than 500 nM.
The same measure for `COc1cccc(C(=O)N[C@H]2C[C@H]3CC[C@@H](C2)N3c2ccc(C(=O)NN)cn2)c1C` [N-{8-[5-(hydrazinocarbonyl)pyridin-2-yl]-8-azabicyclo[3.2.1]oct-3-endo-yl}-2-methyl-3-(methyloxy)benzamide]: 2000 to 10000 nM.
`CCN1CCC[C@@H](NC(=O)c2ccc(N3C4CCC3CC(NC(=O)c3cc(C)c(C(N)=O)cc3C)C4)nc2)C1` (stereo partly drawn) [N-{8-[5-({[(3R)-1-ethylpiperidin-3-yl]amino}carbonyl)pyridin-2-yl]-8-azabicyclo[3.2.1]oct-3-endo-yl}-2,5-dimethylbenzene-1,4-dicarboxamide] gave an IC50 of less than 500 nM.
`CCN1CC[C@@H](NC(=O)c2ccc(N3C4CCC3CC(NC(=O)c3cc(C)c(C(N)=O)cc3C)C4)nc2)C1` (stereo partly drawn) [N-{8-[5-({[(3R)-1-ethylpyrrolidin-3-yl]amino}carbonyl)pyridin-2-yl]-8-azabicyclo[3.2.1]oct-3-endo-yl}-2,5-dimethylbenzene-1,4-dicarboxamide] showed an IC50 of less than 500 nM.
Then `CCN1CCC[C@H](NC(=O)c2ccc(N3C4CCC3CC(NC(=O)c3cc(C)c(C(N)=O)cc3C)C4)nc2)C1` (stereo partly drawn) [N-{8-[5-({[(3S)-1-ethylpiperidin-3-yl]amino}carbonyl)pyridin-2-yl]-8-azabicyclo[3.2.1]oct-3-endo-yl}-2 5-dimethylbenzene-1,4-dicarboxamide], with 500 to 999 nM; and `CCN1CC[C@H](NC(=O)c2ccc(N3C4CCC3CC(NC(=O)c3cc(C)c(C(N)=O)cc3C)C4)nc2)C1` (stereo partly drawn) [N-{8-[5-({[(3S)-1-ethylpyrrolidin-3-yl]amino}carbonyl)pyridin-2-yl]-8-azabicyclo[3.2.1]oct-3-endo-yl}-2,5-dimethylbenzene-1,4-dicarboxamide], with less than 500 nM.
As to `Cc1cnc(CNC(=O)c2ccc(N3[C@@H]4CC[C@H]3C[C@@H](NC(=O)c3ccc(C(N)=O)cc3)C4)nc2)cn1` [N-{8-[5-({[(5-methylpyrazin-2-yl)methyl]amino}carbonyl)pyridin-2-yl]-8-azabicyclo[3.2.1]oct-3-endo-yl}benzene-1,4-dicarboxamide], the concentration for half-maximal inhibition (IC50) is 1000 to 2000 nM.
The same measure for `COc1ccc([C@H](C)NC(=O)c2ccc(N3C4CCC3CC(NC(=O)c3cccc(OC)c3C)C4)nc2)c(F)c1` (stereo partly drawn) [N-{(1S)-1-[2-fluoro-4-(methyloxy)phenyl]ethyl}-6-[3-endo-({[2-methyl-3-(methyloxy)phenyl]carbonyl}amino)-8-azabicyclo[3.2.1]oct-8-yl]pyridine-3-carboxamide]: less than 500 nM.
Compound `CCNC(=O)[C@@H](NC(=O)c1ccc(N2C3CCC2CC(NC(=O)c2cccc(OC)c2C)C3)nc1)c1ccc(OC)cc1` (stereo partly drawn) [N-{(1S)-2-(ethylamino)-1-{4-(methyloxy)phenyl]-2-oxoethyl}-6-[3-endo-({[2-methyl-3-(methyloxy)phenyl]carbonyl}amino)-8-azabicyclo[3.2.1]oct-8-yl]pyridine-3-carboxamide] registered an IC50 of 500 to 999 nM.
Then `CNC(=O)[C@@H](NC(=O)c1ccc(N2C3CCC2CC(NC(=O)c2cccc(OC)c2C)C3)nc1)c1ccc(OC)cc1` (stereo partly drawn) [N-{(1S)-2-(methylamino)-1-[4-(methyloxy)phenyl]-2-oxoethyl}-6-[3-endo-({[2-methyl-3-(methyloxy)phenyl]carbonyl}amino)-8-azabicyclo[3.2.1]oct-8-yl]pyridine-3-carboxamide], with 500 to 999 nM; and `COc1ccc([C@H](NC(=O)c2ccc(N3C4CCC3CC(NC(=O)c3cccc(OC)c3C)C4)nc2)C(N)=O)cc1` (stereo partly drawn) [N-{(1S)-2-amino-1-[4-(methyloxy)phenyl]-2-oxoethyl}-6-[3-endo-({[2-methyl-3-(methyloxy)phenyl]carbonyl}amino)-8-azabicyclo[3.2.1]oct-8-yl]pyridine-3-carboxamide], with 500 to 999 nM.
The same measure for `COc1cccc(C(=O)N[C@H]2C[C@H]3CC[C@@H](C2)N3c2ccc(C(=O)NCc3cccc(OC)c3OC)cn2)c1C` [N-{[2,3-bis(methyloxy)phenyl]methyl}-6-[3-endo-({[2-methyl-3-(methyloxy)phenyl]carbonyl}amino)-8-azabicyclo[3.2.1]oct-8-yl]pyridine-3-carboxamide]: 2000 to 10000 nM; for `COc1ccc(CNC(=O)c2ccc(N3[C@@H]4CC[C@H]3C[C@@H](NC(=O)c3cccc(OC)c3C)C4)nc2)c(OC)c1` [N-{[2,4-bis(methyloxy)phenyl]methyl}-6-[3-endo-({[2-methyl-3-(methyloxy)phenyl]carbonyl}amino)-8-azabicyclo[3.2.1]oct-8-yl]pyridine-3-carboxamide]: 500 to 999 nM.
Consider `COc1cc(F)c(CNC(=O)c2ccc(N3[C@@H]4CC[C@H]3C[C@@H](NC(=O)c3cccc(OC)c3C)C4)nc2)c(F)c1` [N-{[2,6-difluoro-4-(methyloxy)phenyl]methyl}-6-[3-endo-({[2-methyl-3-(methyloxy)phenyl]carbonyl}amino)-8-azabicyclo[3.2.1]oct-8-yl]pyridine-3-carboxamide], for which the IC50 is less than 500 nM.
Then `CCOc1ccccc1CNC(=O)c1ccc(N2[C@@H]3CC[C@H]2C[C@@H](NC(=O)c2cccc(OC)c2C)C3)nc1` [N-{[2-(ethyloxy)phenyl]methyl}-6-[3-endo-({[2-methyl-3-(methyloxy)phenyl]carbonyl}amino)-8-azabicyclo[3.2.1]oct-8-yl]pyridine-3-carboxamide], with 500 to 999 nM; and `COc1ccc(CNC(=O)c2ccc(N3[C@@H]4CC[C@H]3C[C@@H](NC(=O)c3cccc(OC)c3C)C4)nc2)c(Cl)c1` [N-{[2-chloro-4-(methyloxy)phenyl]methyl}-6-[3-endo-({[2-methyl-3-(methyloxy)phenyl]carbonyl}amino)-8-azabicyclo[3.2.1]oct-8-yl]pyridine-3-carboxamide], with less than 500 nM.
Compound `COc1ccc(CNC(=O)c2ccc(N3[C@@H]4CC[C@H]3C[C@@H](NC(=O)c3cccc(OC)c3C)C4)nc2)c(F)c1` [N-{[2-fluoro-4-(methyloxy)phenyl]methyl}-6-[3-endo-({[2-methyl-3-(methyloxy)phenyl]carbonyl}amino)-8-azabicyclo[3.2.1]oct-8-yl]pyridine-3-carboxamide] had an IC50 of less than 500 nM.
Regarding `COc1cccc(C(=O)N[C@H]2C[C@H]3CC[C@@H](C2)N3c2ccc(C(=O)NCc3c(F)cccc3OC)cn2)c1C` [N-{[2-fluoro-6-(methyloxy)phenyl]methyl}-6-[3-endo-({[2-methyl-3-(methyloxy)phenyl]carbonyl}amino)-8-azabicyclo[3.2.1]oct-8-yl]pyridine-3-carboxamide], the IC50 was 1000 to 2000 nM.
Then `COc1cc(CNC(=O)c2ccc(N3[C@@H]4CC[C@H]3C[C@@H](NC(=O)c3cccc(OC)c3C)C4)nc2)cc(OC)c1` [N-{[3,5-bis(methyloxy)phenyl]methyl}-6-[3-endo-({[2-methyl-3-(methyloxy)phenyl]carbonyl}amino)-8-azabicyclo[3.2.1]oct-8-yl]pyridine-3-carboxamide], with 1000 to 2000 nM.
